# Assay results as given in PubChem BioAssay (NCI).
#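 Results reflect a 48-hour exposure of cells in 96-well plates to compound at five concentrations. At the GI50, growth is halved. The concentration for full growth arrest is given as TGI.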
# Tests used:
# Test in all cases: NCI tumour cell line growth inhibition, 48 h
# [1] = system: NCI/ADR-RES ovarian
# [2] = system: OVCAR-8 ovarian
# [3] = system: UO-31 renal
# [4] = system: NCI-H460 lung
# [5] = system: MCF7 breast
# [6] = system: HT29 colon
# [7] = system: EKVX NSCLC
# [8] = system: UACC-62 melanoma
# [9] = system: SNB-75 CNS
# [10] = system: MALME-3M melanoma
# [11] = system: SK-MEL-5 melanoma
# [12] = system: IGROV1 ovarian
# [13] = system: HS 578T breast
# [14] = system: SN12C renal
# [15] = system: T-47D breast
# [16] = system: LOX IMVI melanoma
# [17] = system: SR leukemia
# [18] = system: SK-MEL-2 melanoma
# [19] = system: M14 melanoma
# [20] = system: HOP-92 NSCLC
# [21] = system: RPMI-8226 leukemia
# [22] = system: SK-MEL-28 melanoma
# [23] = system: HCC-2998 colon
# [24] = system: NCI-H226 lung
# [25] = system: OVCAR-3 ovarian
# [26] = system: NCI-H522 lung
# [27] = system: A498 renal
# [28] = system: COLO 205 colon
# [29] = system: SF-295 CNS
# [30] = system: OVCAR-5 ovarian
# [31] = system: KM12 colon
# [32] = system: 786-0 renal
# [33] = system: UACC-257 melanoma
# [34] = system: MOLT-4 leukemia
# [35] = system: SF-539 CNS
# [36] = system: U251 CNS
# [37] = system: RXF 393 renal
# [38] = system: CAKI-1 renal
# [39] = system: HCT-15 colon
# [40] = system: MDA-MB-231 breast
# [41] = system: PC-3 prostate
# [42] = system: DU-145 prostate
# [43] = system: BT-549 breast
# [44] = system: SW-620 colon
# [45] = system: CCRF-CEM leukemia
# [46] = system: HOP-62 NSCLC
# [47] = system: A549 NSCLC
# [48] = system: SNB-19 CNS
# [49] = system: SF-268 CNS
# [50] = system: SK-OV-3 ovarian
# [51] = system: TK-10 renal
# [52] = system: NCI-H23 lung
# [53] = system: ACHN renal
# [54] = system: OVCAR-4 ovarian
# [55] = system: K-562 leukemia
# [56] = system: MDA-MB-435
# [57] = system: HL-60(TB) leukemia
structure (smiles),measurement,setting,value
CCN(CC)CCCC(C)Nc1cnc(C(=O)Nc2ccc(Cl)c3cccnc23)cn1 (centres undefined),GI50,[1],2.55 µM
same,TGI,[1],9.33 µM
same,GI50,[2],3.17 µM
same,TGI,[2],10 µM
same,GI50,[3],1.48 µM
same,TGI,[3],2.9 µM
same,GI50,[4],2.64 µM
same,TGI,[4],6.8 µM
same,GI50,[5],1.68 µM
same,TGI,[5],4.39 µM
same,GI50,[6],1.33 µM
same,TGI,[6],3.26 µM
same,GI50,[7],3.98 µM
same,TGI,[7],17.2 µM
same,GI50,[8],1.85 µM
same,TGI,[8],3.43 µM
same,GI50,[9],3.18 µM
same,TGI,[9],15.1 µM
same,GI50,[10],1.82 µM
same,TGI,[10],3.3 µM
same,GI50,[11],1.8 µM
same,TGI,[11],3.31 µM
same,GI50,[12],1.62 µM
same,TGI,[12],4.11 µM
same,GI50,[13],3.06 µM
same,TGI,[13],13 µM
same,GI50,[14],2.19 µM
same,TGI,[14],5.53 µM
same,GI50,[15],1.21 µM
same,TGI,[15],2.97 µM
same,GI50,[16],1.78 µM
same,TGI,[16],3.3 µM
same,GI50,[17],1.18 µM
same,TGI,[17],4.12 µM
same,GI50,[18],1.95 µM
same,TGI,[18],4.34 µM
same,GI50,[19],1.79 µM
same,TGI,[19],3.59 µM
same,GI50,[20],1.18 µM
same,TGI,[20],2.82 µM
same,GI50,[21],1.74 µM
same,TGI,[21],3.92 µM
same,GI50,[22],1.79 µM
same,TGI,[22],3.28 µM
same,GI50,[23],1.5 µM
same,TGI,[23],3.08 µM
same,GI50,[24],4.73 µM
same,TGI,[24],20.7 µM
same,GI50,[25],2.01 µM
same,TGI,[25],3.97 µM
same,GI50,[26],2.07 µM
same,TGI,[26],4.34 µM
same,GI50,[27],5.48 µM
same,TGI,[27],19.5 µM
same,GI50,[28],1.58 µM
same,TGI,[28],3.23 µM
same,GI50,[29],2.11 µM
same,TGI,[29],4.92 µM
same,GI50,[30],1.83 µM
same,TGI,[30],3.6 µM
same,GI50,[31],3.79 µM
same,TGI,[31],13.3 µM
same,GI50,[32],1.4 µM
same,TGI,[32],2.87 µM
same,GI50,[33],2.91 µM
same,TGI,[33],7.96 µM
same,GI50,[34],1.33 µM
same,TGI,[34],3.3 µM
same,GI50,[35],1.71 µM
same,TGI,[35],3.12 µM
same,GI50,[36],1.93 µM
same,TGI,[36],3.83 µM
same,GI50,[37],1.64 µM
same,TGI,[37],3.36 µM
same,GI50,[38],1.78 µM
same,TGI,[38],4.1 µM
same,GI50,[39],2.29 µM
same,TGI,[39],6.3 µM
same,GI50,[40],1.68 µM
same,TGI,[40],3.76 µM
same,GI50,[41],1.32 µM
same,TGI,[41],2.82 µM
same,GI50,[42],4.12 µM
same,TGI,[42],15.8 µM
same,GI50,[43],1.59 µM
same,TGI,[43],3.08 µM
same,GI50,[44],2.09 µM
same,TGI,[44],4.74 µM
same,GI50,[45],0.484 µM
same,TGI,[45],2.27 µM
same,GI50,[46],1.77 µM
same,TGI,[46],3.61 µM
same,GI50,[47],2.71 µM
same,TGI,[47],11.8 µM
same,GI50,[48],3.37 µM
same,TGI,[48],13.9 µM
same,GI50,[49],3.23 µM
same,TGI,[49],15 µM
same,GI50,[50],12.9 µM
same,TGI,[50],26 µM
same,GI50,[51],9.09 µM
same,TGI,[51],21.9 µM
same,GI50,[52],5.04 µM
same,TGI,[52],19.6 µM
same,GI50,[53],1.73 µM
same,TGI,[53],3.31 µM
same,GI50,[54],2.42 µM
same,TGI,[54],6.99 µM
same,GI50,[55],1.05 µM
same,TGI,[55],3.71 µM
same,GI50,[56],1.81 µM
same,TGI,[56],3.43 µM
same,GI50,[57],1.77 µM
same,TGI,[57],3.54 µM
